Tests used:
[1] = test system: Argentine worker ants (Linepithema humile); experiment: Aerosol spray test on adult Argentine worker ants, moribund and mortal rates; type: in vivo; details: aerosol per Formulation Example 2 (0.1 part compound), from height 60 cm, ten adult workers, seven days after spraying
Method: (§1) The internal pressure of the container at 20° C. of the aerosols thus fabricated was 0.5 MPa, the spray amount was 3 g/5 seconds, and the representative particle size (XR value) was 14 to 15 μm.
In a plastic container (diameter: 10 cm, height: 4.5 cm) lined with a filter paper (diameter: 8.2 cm), ten adult Argentine worker ants (Linepithema humile) were released, and the plastic container was placed in the center of the bottom of a cylindrical chamber of 17.2 cm in diameter. From the height of 60 cm, the aerosol containing each compound listed in Table 2 which was fabricated according to the method mentioned in Formulation Example 2 was sprayed with a spray time of 0.34 second or 0.68 second and a spray amount of about 400 mg or 200 mg. After a lapse of seven days from spraying, the number of dead and moribund individuals was examined, and moribund and mortal rates (%) were determined by the equation 2 below. Dead individuals are completely immobile individuals, and moribund individuals are individuals who cannot get up when turned on their backs.
Moribund and mortal rates (%)={(number of dead individuals+number of moribund individuals)/number of tested individuals}×100 (Equation 2)

[2] = test system: German cockroaches (Blattella germanica); experiment: Aerosol spray test on adult German cockroaches, moribund and mortal rates; type: in vivo; details: aerosol per Formulation Example 2 (0.1 part compound); spray time 1.35 seconds, spray amount about 800 mg, from height 50 cm; ten adults; one day after spraying
Method: as §1
In a plastic container (diameter: 12.4 cm, height: 10.2 cm), ten adult German cockroaches (Blattella germanica) (five males and five females each) were released, and the plastic container was placed in the center of the bottom of a cylindrical chamber of 17.2 cm in diameter. From the height of 50 cm, the aerosol containing each compound listed in Table 2 which was fabricated according to the method mentioned in Formulation Example 2 was sprayed with a spray time of 1.35 seconds and a spray amount of about 800 mg. After a lapse of one day from spraying, the number of dead and moribund individuals was examined, and moribund and mortal rates (%) were determined by the equation 1 below. Dead individuals are completely immobile individuals, and moribund individuals are individuals who cannot get up when turned on their backs.
Moribund and mortal rates (%)={(number of dead individuals+number of moribund individuals)/number of tested individuals}×100 (Equation 1)

Compound | Moribund and mortal rates (%) after seven days ([1]; spray amount 200 mg) | Moribund and mortal rates (%) after seven days ([1]; spray amount 400 mg) | Moribund and mortal rates (%) after one day [2]
CCS(=O)(=O)c1cc(C)cnc1-c1nc2cc([S+]([O-])C(F)(F)F)ccc2o1 (stereo not drawn) [Comparative compound 3] | 3% | 100% | 30%
CCS(=O)(=O)c1cc(C)cnc1-c1nc2cc(S(=O)(=O)C(F)(F)F)ccc2o1 [Comparative compound 4] | 10% | 100% | 15%
CCS(=O)(=O)c1cc(C(F)(F)F)cnc1-c1nc2cc([S+]([O-])C(F)(F)F)ccc2o1 (stereo not drawn) [Comparative compound 1] | 10% | 100% | 30%
CCS(=O)(=O)c1cc(C2CC2)cnc1-c1nc2cc(S(=O)(=O)C(F)(F)F)ccc2o1 [Present compound B] | 100% | 100% | 100%
CCS(=O)(=O)c1cc(C(F)(F)F)cnc1-c1nc2cc(S(=O)(=O)C(F)(F)F)ccc2o1 [Comparative compound 2] | 13% | 100% | 30%
CCS(=O)(=O)c1cc(C2CC2)cnc1-c1nc2cc([S+]([O-])C(F)(F)F)ccc2o1 (stereo not drawn) [Present compound A] | 100% | 100% | 100%

— patent US20240196897A1, “METHOD FOR CONTROLLING DISEASE-TRANSMITTING INSECTS USING CONDENSED HETEROCYCLIC COMPOUND” (SUMITOMO CHEMICAL COMPANY, LIMITED, priority 2021, published 2024)
